Two compounds from patent publication US11427574B2, “Compounds for treating Rac-GTPase mediated disorder” (Children's Medical Center Corporation, priority 2015, dated 2022) can be followed below.

For test [1], the target named is LIMK1 (Homo sapiens, UniProt P53667). Kind of test: Kinase screening. Format: biochemical. How it is done:
(§1) Compound 1 was tested for its efficacy in inhibiting activities of 40 kinases and binding with 12 GPCRs both as an antagonist and an agonist.

The target in test [2] is JAK1 (Homo sapiens, UniProt P23458). Kind of test: Kinase screening. Format: biochemical. The procedure: as §1
The target in test [3] is ROCK2 (Homo sapiens, UniProt O75116). Kind of test: Kinase screening. Type of test: biochemical. How it is done: as §1
For test [4], the target named is PIK3C2B (PI3K-C2 beta) (Homo sapiens, UniProt O00750). Kind of test: Kinase screening. Format: biochemical. The procedure:
as §1

Test [5] addresses PAK1 (Homo sapiens, UniProt Q13153). Kind of test: Kinase screening. Format: biochemical. How it is done: as §1
The target of test [6] is JAK3 (Homo sapiens, UniProt P52333). Kind of test: Kinase screening. Type of test: biochemical. How it is done:
as §1

Test [7] addresses MAP2K2 (MEK2) (Homo sapiens, UniProt P36507). Kind of test: Kinase screening. Type of test: biochemical. How it is done: as §1
Test [8] concerns the target PIK3CA/PIK3R1 (p110 alpha/p85 alpha) (Homo sapiens, UniProt P42336). Kind of test: Kinase screening. Format: biochemical. The procedure: as §1
Test [9] has as its target PAK2 (PAK65) (Homo sapiens, UniProt Q13177). Kind of test: Kinase screening. Format: biochemical. How it is done: as §1
Test [10] deals with PAK7 (KIAA1264) (Homo sapiens, UniProt Q9P286). Kind of test: Kinase screening. Format: biochemical. How it is done: as §1
Test [11] concerns the target SYK (Homo sapiens, UniProt P43405). Kind of test: Kinase screening. Type of test: biochemical. The procedure: as §1
Test [12] concerns the target PIK3CD/PIK3R1 (p110 delta/p85 alpha) (Homo sapiens, UniProt O00329). Kind of test: Kinase screening. Type of test: biochemical. How it is done:
as §1

Test [13] concerns the target PDGFRA (PDGFR alpha) (Homo sapiens, UniProt P16234). Kind of test: Kinase screening. Format: biochemical. The procedure:
as §1

The target in test [14] is FLT3 (Homo sapiens, UniProt P36888). Kind of test: Kinase screening. Type of test: biochemical. How it is done: as §1
Test [15] concerns the target MAPK3 (ERK1) (Homo sapiens, UniProt P27361). Kind of test: Kinase screening. Format: biochemical. The procedure: as §1
Test [16] deals with SRC (Homo sapiens, UniProt P12931). Kind of test: Kinase screening. Type of test: biochemical. How it is done: as §1
The target in test [17] is CDC42 BPA (MRCKA) (Homo sapiens, UniProt Q5VT25). Kind of test: Kinase screening. Format: biochemical. The procedure:
as §1

Test [18] has as its target CDK1/cyclin B (Homo sapiens, UniProt P06493). Kind of test: Kinase screening. Format: biochemical. How it is done: as §1
Test [19] has as its target FRAP1 (mTOR) (Homo sapiens, UniProt P42345). Kind of test: Kinase screening. Type of test: biochemical. How it is done: as §1
Test [20] concerns the target ROCK1 (Homo sapiens, UniProt Q13464). Kind of test: Kinase screening. Format: biochemical. How it is done: as §1
For test [21], the target named is MAPK9 (JNK2) (Homo sapiens, UniProt P45984). Kind of test: Kinase screening. Type of test: biochemical. The procedure: as §1
Test [22] has as its target KIT (Homo sapiens, UniProt P10721). Kind of test: Kinase screening. Format: biochemical. How it is done: as §1
In test [23] the target is CDK5/p25 (Homo sapiens, UniProt Q00535). Kind of test: Kinase screening. Format: biochemical. The procedure: as §1
The target in test [24] is IGF1R (Homo sapiens, UniProt P08069). Kind of test: Kinase screening. Type of test: biochemical. How it is done:
as §1

Test [25] concerns the target EGFR (ErbB1) (Homo sapiens, UniProt P00533). Kind of test: Kinase screening. Format: biochemical. How it is done: as §1
For test [26], the target named is ABL1 (Homo sapiens, UniProt P00519). Kind of test: Kinase screening. Type of test: biochemical. How it is done:
as §1

Test [27] has as its target MAPK8 (JNK1) (Homo sapiens, UniProt P45983). Kind of test: Kinase screening. Format: biochemical. The procedure:
as §1

The target in test [28] is PAK3 (Homo sapiens, UniProt O75914). Kind of test: Kinase screening. Type of test: biochemical. How it is done: as §1
PAK3, sequence (O75914 whole entry, species assumed): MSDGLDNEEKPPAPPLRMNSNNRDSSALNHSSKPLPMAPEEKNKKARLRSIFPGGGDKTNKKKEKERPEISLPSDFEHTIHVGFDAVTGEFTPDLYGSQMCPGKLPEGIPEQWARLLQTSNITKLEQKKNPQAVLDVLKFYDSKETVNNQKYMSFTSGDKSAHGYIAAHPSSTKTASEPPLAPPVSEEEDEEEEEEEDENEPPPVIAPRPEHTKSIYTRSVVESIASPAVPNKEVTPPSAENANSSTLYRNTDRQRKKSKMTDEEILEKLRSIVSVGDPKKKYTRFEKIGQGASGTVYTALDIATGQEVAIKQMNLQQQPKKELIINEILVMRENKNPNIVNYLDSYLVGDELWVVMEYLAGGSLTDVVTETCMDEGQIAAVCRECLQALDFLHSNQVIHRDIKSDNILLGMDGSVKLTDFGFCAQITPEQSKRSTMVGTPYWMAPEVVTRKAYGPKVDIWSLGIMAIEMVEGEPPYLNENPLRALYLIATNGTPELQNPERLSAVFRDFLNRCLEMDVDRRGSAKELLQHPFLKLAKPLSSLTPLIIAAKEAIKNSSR
Test [29] concerns the target PIK3C2A (PI3K-C2 alpha) (Homo sapiens, UniProt O00443). Kind of test: Kinase screening. Type of test: biochemical. The procedure: as §1
The target in test [30] is PIK3C3 (hVPS34) (Homo sapiens, UniProt Q8NEB9). Kind of test: Kinase screening. Type of test: biochemical. The procedure:
as §1

The target of test [31] is AKT2 (PKB beta) (Homo sapiens, UniProt P31751). Kind of test: Kinase screening. Type of test: biochemical. The procedure:
as §1

The target in test [32] is PAK6 (Homo sapiens, UniProt Q9NQU5). Kind of test: Kinase screening. Type of test: biochemical. How it is done: as §1
Test [33] has as its target AKT1 (PKB alpha) (Homo sapiens, UniProt P31749). Kind of test: Kinase screening. Type of test: biochemical. How it is done:
as §1

In test [34] the target is MAP3K2 (MEKK2) (Homo sapiens, UniProt Q9Y2U5). Kind of test: Kinase screening. Type of test: biochemical. The procedure:
as §1

For test [35], the target named is EPHB1 (Homo sapiens, UniProt P54762). Kind of test: Kinase screening. Format: biochemical. How it is done: as §1
Test [36] addresses PAK4 (Homo sapiens, UniProt O96013). Kind of test: Kinase screening. Format: biochemical. How it is done:
as §1

Test [37] deals with CDC42 BPB (MRCKB) (Homo sapiens, UniProt Q9Y5S2). Kind of test: Kinase screening. Format: biochemical. The procedure: as §1
The target in test [38] is JAK2 (Homo sapiens, UniProt O60674). Kind of test: Kinase screening. Type of test: biochemical. The procedure:
as §1

The target in test [39] is MYLK (MLCK) (Homo sapiens, UniProt Q15746). Kind of test: Kinase screening. Type of test: biochemical. How it is done:
as §1

Test [40] concerns the target LIMK2 (Homo sapiens, UniProt P53671). Kind of test: Kinase screening. Type of test: biochemical. The procedure:
as §1

The subject of test [41] is P12-ICHIKAWA cells. Kind of test: In vivo P12-ICHIKAWA leukemia model in NSG mice. The conditions noted are these: 50 mg/Kg body weight oral twice daily; supine position, vs vehicle. How it is done:
Specifically, cell line P12-ICHIKAWA was marked with a lentiviral vector coexpressing Luciferase and an mCherry fluorescent tag. Sorted mCherry positive P12-ICHIKAWA cells were injected into immunodeficient (NSG) mice. About 3 weeks after injection, based on an estimation of the tumor burden by quantitative assessment of bioluminescence imaging (BLI) in vivo, mice began treatment. Mice received twice daily oral doses of Compound 2 (50 mg/Kg body weight) or placebo. Each of the Compound 2 group and the vehicle group had eight mice. BLI analysis was performed three times a week to assess tumor burden. Toxicity was assessed by evaluating body weight in treated mice vs vehicle group (see FIG. 13a). The experiment was halted at day 18 after beginning of treatment due to the very aggressive nature of the disease in the vehicle group. Mice were imaged in the supine and prone position. FIG. 13b summarizes BLI values normalized to treatment start in both the compound 2 group and the vehicle group in the supine position.

Test [42] has as its system SEM cell line. Kind of test: Annexin V flow assay for apoptosis and cell death, SEM. Format: cell-based. The conditions noted are these: Annexin V staining. An excerpt: FIGS. 3a-3c show three graphs illustrating the dose dependent inhibition of proliferation of Compound 1 in SEM, P12, and Loucy cells as measured by MTS assay. […] Compound 1 was further analyzed for its effect on cell apoptosis and cell death using a flow based assay using Annexin V staining.
Compound 2 was further analyzed for its effect on cell apoptosis and cell death using a flow based assay using Annexin V staining.

The subject of test [43] is SEM cells. Kind of test: Proliferation assay in SEM leukemia cells. Format: cell-based. The conditions noted are these: compared to Compound 1 (FIG. 12a). How it is done:
Dose Dependent Inhibition of Proliferation The 100 compounds selected from the initial in silico screen were assayed for inhibition of proliferation in two leukemia cell lines, SEM and P12 by Cell Titer Glo. The cells for the proliferation assay were spun down and re-suspended. The cell suspension was then divided and the compound to be tested added in desired concentrations and subsequently plated. Following an incubation period, the Cell Titer Glo reagent (Promega CellTiter 96® Aqueous Non-Radioactive Cell Proliferation Assay) was added and allowed to incubate. The absorbance is subsequently measured at 490 nm using a plate reader. Each compound was analyzed for its effects on cell proliferation.
The lead compound, i.e. Compound 1, was analyzed for its effect on cell proliferation at various doses on three different leukemia cell lines: SEM, P12, and Loucy. In order to quantitate the percentage inhibition of cell proliferation, Cell Titer Glo analysis was completed as described in Example 2 above.
FIGS. 3a-3c show three graphs illustrating the dose dependent inhibition of proliferation of Compound 1 in SEM, P12, and Loucy cells as measured by MTS assay. […] Compound 1 was further analyzed for its effect on cell apoptosis and cell death using a flow based assay using Annexin V staining. […]

Test [44] has as its system cancer cell. Kind of test: Cellular proliferation assay of SAR analogs. Type of test: cell-based. The conditions noted are these: among 48 tested SAR analogs. How it is done: SAR was performed to identify analogs of Compound that have improved properties. 56 Compounds identified in this SAR study were synthesized. Among them, 48 compounds were tested a cellular proliferation assay.

In test [45] the target is Rac1 (Homo sapiens, UniProt P63000). Kind of test: 2D NMR spectroscopy binding assay. The conditions noted are these: 50 μM Rac1 and 250 μM Compound 2. How it is done:
(§2) Compound 1 was tested for its efficacy in binding with Rac1 in two independent binding assays, i.e., 2D NMR spectroscopy and Homologous time resolved fluorescence assay (HTRF).
(§3) In the 2D NMR assay, samples containing 50 μM Rac1 and 250 μM or 400 μM Compound 1 were used.
(§4) Compound 2 was tested for its efficacy in binding with Rac1 in two independent binding assays, i.e., 2D NMR spectroscopy and Homologous time resolved fluorescence assay (HTRF).
(§5) In the 2D NMR assay, a sample containing 50 μM Rac1 and 250 μM Compound 2 was used.

In test [46] the target is Tiam1-Rac complex (Homo sapiens, UniProt P63000). Kind of test: Homologous time resolved fluorescence (HTRF) binding assay. How it is done: as §2, §3, §4, §5

Each structure is given as a SMILES string.

AKT2 (PKB beta), sequence (P31751 whole entry, species assumed): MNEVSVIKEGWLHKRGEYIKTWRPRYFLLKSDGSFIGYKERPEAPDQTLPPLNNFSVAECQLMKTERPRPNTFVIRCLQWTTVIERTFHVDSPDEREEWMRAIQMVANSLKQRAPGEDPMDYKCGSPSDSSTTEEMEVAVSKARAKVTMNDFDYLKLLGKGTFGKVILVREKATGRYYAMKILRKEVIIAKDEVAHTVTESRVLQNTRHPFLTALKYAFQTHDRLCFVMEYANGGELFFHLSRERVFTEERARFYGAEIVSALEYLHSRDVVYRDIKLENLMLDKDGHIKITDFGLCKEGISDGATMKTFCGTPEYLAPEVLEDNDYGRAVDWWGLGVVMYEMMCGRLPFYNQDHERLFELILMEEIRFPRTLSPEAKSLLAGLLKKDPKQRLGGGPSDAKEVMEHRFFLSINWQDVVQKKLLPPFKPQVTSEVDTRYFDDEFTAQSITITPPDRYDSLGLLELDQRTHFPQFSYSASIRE
PAK2 (PAK65), sequence (Q13177 whole entry, species assumed): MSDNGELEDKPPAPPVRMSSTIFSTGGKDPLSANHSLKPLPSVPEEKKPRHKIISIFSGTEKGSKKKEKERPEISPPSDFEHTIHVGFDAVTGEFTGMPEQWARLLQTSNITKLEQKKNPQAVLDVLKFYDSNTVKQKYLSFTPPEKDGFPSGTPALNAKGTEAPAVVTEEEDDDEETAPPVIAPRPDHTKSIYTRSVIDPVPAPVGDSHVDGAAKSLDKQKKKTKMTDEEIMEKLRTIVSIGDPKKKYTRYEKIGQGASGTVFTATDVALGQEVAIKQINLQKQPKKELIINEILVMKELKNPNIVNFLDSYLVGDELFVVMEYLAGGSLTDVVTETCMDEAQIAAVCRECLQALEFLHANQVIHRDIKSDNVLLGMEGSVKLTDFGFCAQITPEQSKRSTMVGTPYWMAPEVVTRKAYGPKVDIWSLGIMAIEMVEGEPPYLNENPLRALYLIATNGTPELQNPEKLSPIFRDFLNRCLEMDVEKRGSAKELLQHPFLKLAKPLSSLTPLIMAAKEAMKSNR
LIMK2, sequence (P53671 whole entry, species assumed): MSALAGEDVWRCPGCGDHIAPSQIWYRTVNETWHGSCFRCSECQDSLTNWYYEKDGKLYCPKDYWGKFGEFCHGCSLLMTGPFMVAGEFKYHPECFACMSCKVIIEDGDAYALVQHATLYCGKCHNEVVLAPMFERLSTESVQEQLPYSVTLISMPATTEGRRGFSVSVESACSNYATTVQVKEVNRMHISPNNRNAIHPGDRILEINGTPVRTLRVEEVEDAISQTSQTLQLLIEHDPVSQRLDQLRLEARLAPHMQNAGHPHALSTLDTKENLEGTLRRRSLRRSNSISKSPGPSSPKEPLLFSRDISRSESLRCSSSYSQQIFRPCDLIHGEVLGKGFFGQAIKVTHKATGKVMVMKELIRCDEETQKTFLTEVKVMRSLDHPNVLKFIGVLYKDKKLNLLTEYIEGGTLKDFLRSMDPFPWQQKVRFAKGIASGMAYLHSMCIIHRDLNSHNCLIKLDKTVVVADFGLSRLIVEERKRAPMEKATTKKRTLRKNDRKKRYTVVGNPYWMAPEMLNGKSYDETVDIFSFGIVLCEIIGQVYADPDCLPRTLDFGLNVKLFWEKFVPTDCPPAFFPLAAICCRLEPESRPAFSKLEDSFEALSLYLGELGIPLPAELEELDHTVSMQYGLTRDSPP
IGF1R, sequence (P08069 31-1367, species assumed): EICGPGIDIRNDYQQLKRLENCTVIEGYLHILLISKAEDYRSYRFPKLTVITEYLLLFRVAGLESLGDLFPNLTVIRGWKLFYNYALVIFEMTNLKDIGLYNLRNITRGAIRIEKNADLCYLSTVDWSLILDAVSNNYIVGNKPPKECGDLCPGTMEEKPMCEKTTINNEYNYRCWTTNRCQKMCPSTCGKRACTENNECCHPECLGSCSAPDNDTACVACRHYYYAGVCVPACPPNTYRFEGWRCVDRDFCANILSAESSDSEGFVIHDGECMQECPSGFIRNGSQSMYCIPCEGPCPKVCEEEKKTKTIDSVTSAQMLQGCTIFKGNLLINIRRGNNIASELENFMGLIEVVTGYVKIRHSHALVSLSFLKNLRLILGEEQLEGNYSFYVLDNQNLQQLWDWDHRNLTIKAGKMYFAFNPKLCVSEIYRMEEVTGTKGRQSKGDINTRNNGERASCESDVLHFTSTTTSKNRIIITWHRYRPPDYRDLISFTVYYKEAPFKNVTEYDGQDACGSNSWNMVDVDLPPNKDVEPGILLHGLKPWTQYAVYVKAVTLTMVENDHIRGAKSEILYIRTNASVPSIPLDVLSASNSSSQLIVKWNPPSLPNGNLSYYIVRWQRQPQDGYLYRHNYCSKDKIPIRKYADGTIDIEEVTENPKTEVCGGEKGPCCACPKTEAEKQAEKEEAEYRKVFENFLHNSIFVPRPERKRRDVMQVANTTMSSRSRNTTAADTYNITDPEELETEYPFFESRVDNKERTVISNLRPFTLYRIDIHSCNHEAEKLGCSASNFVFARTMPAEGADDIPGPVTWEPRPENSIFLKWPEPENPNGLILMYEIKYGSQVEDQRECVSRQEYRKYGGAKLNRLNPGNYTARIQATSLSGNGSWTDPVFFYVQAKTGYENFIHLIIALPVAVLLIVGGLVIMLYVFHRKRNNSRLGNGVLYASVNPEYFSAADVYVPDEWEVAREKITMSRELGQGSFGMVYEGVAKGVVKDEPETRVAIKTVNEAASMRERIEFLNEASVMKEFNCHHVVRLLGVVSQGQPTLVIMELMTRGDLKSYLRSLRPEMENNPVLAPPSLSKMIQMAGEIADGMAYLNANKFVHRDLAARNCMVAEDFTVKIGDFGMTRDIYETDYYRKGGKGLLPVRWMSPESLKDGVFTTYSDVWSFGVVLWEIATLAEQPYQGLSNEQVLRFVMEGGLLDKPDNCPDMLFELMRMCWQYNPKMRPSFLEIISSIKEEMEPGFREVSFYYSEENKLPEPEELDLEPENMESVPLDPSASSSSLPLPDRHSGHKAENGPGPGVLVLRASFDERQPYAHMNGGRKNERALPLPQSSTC
EGFR (ErbB1), sequence (P00533 25-1210, species assumed): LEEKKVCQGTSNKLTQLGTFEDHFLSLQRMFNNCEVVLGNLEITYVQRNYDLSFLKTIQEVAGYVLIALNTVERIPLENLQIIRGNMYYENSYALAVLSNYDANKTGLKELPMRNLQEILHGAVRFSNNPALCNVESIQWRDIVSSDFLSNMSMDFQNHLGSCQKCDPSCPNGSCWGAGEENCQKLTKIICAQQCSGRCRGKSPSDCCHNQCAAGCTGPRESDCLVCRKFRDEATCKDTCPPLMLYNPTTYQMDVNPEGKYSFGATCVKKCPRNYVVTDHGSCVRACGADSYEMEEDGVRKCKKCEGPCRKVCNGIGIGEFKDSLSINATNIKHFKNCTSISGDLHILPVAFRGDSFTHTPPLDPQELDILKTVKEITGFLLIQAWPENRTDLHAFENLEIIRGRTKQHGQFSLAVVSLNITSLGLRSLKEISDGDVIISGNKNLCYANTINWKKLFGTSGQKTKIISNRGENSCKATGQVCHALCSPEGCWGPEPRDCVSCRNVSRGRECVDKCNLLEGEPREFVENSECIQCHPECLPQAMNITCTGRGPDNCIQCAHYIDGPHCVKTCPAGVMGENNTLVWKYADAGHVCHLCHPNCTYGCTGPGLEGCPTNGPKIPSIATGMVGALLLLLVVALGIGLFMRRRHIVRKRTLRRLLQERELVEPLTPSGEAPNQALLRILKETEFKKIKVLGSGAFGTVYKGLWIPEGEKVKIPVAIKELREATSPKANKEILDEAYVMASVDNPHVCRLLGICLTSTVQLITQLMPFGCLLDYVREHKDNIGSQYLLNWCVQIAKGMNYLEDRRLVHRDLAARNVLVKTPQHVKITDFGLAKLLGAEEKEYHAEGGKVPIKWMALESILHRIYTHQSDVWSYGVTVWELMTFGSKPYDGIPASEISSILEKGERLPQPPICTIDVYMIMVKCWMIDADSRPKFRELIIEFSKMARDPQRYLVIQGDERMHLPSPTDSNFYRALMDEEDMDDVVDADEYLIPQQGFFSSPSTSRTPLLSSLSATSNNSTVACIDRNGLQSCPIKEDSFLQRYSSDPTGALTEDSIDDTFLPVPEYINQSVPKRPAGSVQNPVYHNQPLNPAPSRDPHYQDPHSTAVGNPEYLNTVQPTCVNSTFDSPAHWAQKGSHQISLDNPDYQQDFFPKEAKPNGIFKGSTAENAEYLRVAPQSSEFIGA

As for `CCN(CC)CCCC(C)Nc1nc(C)cc(Nc2ccc3nc(C)cc(N)c3c2)n1.Cl.Cl.Cl` (racemic) [NSC23766, N6-[2-[[4-(diethylamino)-1-methylbutyl]amino]-6-methyl-4-pyrimidinyl]-2-methyl-4,6-quinolinediamine trihydrochloride, reference compound], the inhibition percentage in test [1] is −14.2 percentage; in [2] it was 50.6 percentage; in [3] it was −14.7 percentage; in [4], −1.8 percentage; in [5] it was 24.4 percentage; in test [6] it was 21.9 percentage. Besides, the inhibition percentage in test [7] is recorded as 20.7 percentage; in [8], −0.4 percentage; in test [9], 0.3 percentage; in test [10], 4.9 percentage; in test [11] it was 39.4 percentage; in test [12], −5.8 percentage. The inhibition percentage is 34.8 percentage in test [13]; 31.4 percentage in test [14]; 11.5 percentage in test [15]; 43.6 percentage in test [16]; −1.8 percentage in [17]; 1.3 percentage in test [18]. For the same compound, the inhibition percentage was 27.0 percentage in [19]; −2.0 percentage in test [20]; −8.9 percentage in [21]; 26.3 percentage in [22]; 11.4 percentage in test [23]; 42.9 percentage in test [24]. For the same compound, the inhibition percentage in [25] is 24.6 percentage; in test [26], 19.3 percentage; in [27], −1.1 percentage; in [28], 6.3 percentage; in [29] it was −3.3 percentage; in test [30], −17.8 percentage. Also, the inhibition percentage was −22.9 percentage in test [31]; 8.9 percentage in test [32]; −23.3 percentage in [33]; 14.3 percentage in test [34]; 19.8 percentage in test [35]; −0.2 percentage in test [36]. Besides, the inhibition percentage in test [37] is on record as −4.6 percentage; in test [38], 37.7 percentage; in [39], 1.6 percentage; in test [40], −3.5 percentage.

With `CCc1ccc(CN(C)C(=O)CCc2nnc(CCc3c[nH]c4ccccc34)o2)cc1` [Compound 2], the “bioluminescence in the mice” value in test [41] is given as “significantly reduced”. The “cell apoptosis and cell death” value in test [42] is “caused cells apoptosis and cell death”. Besides, the “efficacy in inhibiting proliferation of SEM cells” value in test [43] was “improved efficacy”. The “inhibition of cancer cell proliferation” value in test [44] was “strongest inhibition”. The “binding to Rac1 by 2D NMR” value in [45] is recorded as “did not indicate any significant binding”. The “binding in the HTRF assay” value in test [46] is reported as “no binding”.
